According to publication PMC6896158, “Enzymatic Characterization of Wild-Type and Mutant Janus Kinase 1” (Cancers, 2019):
Where two headings read alike, the source gives them in different places. Each block holds one molecule with its values, some of them ahead of it.

What was measured:
JAK1 constructs = JAK1 constructs (Homo sapiens, UniProt P23458); assay: Thermal shift assay (SYPRO orange); format: binding; conditions: all constructs containing a kinase domain
Experimental: To determine whether the V658F mutation affects protein stability we performed thermal shift assays on all the JAK constructs in the presence and absence of various cofactors that bind the kinase domain. SYPRO orange, which fluoresces when bound to hydrophobic residues, was added to a solution of protein and ligand. Fluorescence was measured as the temperature of the solution was increased, with increased fluorescence indicating the unfolding of the protein. The melting temperature (Tm) is represented by the inflection point of the fluorescence curve, with a higher Tm indicating greater thermal stability.
JAKs of 3–5 µg were diluted into the JAK Gel Filtration Buffer with 0.04× SYPRO orange, 4% (v/v) DMSO plus either 20 mM EDTA, 1 mM ATP and 2 mM MgCl2, or 6 µM itacitinib, and with or without 5 µM receptor peptide. The temperature was raised in 1 °C per min steps from 25 °C to 80 °C and fluorescence readings at 530 nm were taken at each interval. Sigmoidal curves were fitted to the fluorescence data to provide Tm values for each experiment.

JAK1 = target: T1, JAK1 (Homo sapiens, UniProt P23458); assay: Steady-state kinetics, kinase activity assay (KM for ATP and STAT5b peptide); format: biochemical; conditions: 6 mM peptide substrate, read-out: KM, app (ATP)
T1 construct: full length, 25-1154; His tag (TEV-cleavable) (N, cleaved yes); made in house; host or cells: Sf21 insect cells (baculovirus)

[1] = target: JAK1 (wild type constructs) (Homo sapiens, UniProt P23458); assay: Kinase assay with titration of itacitinib (γ-32P-ATP, STAT5b peptide); format: biochemical; conditions: all wild type constructs (kinase domain, pseudokinase-kinase, full length); Ki=IC50/(1+S/KM)
Sequence of JAK1 (wild type constructs) (P23458 862-1154 limits assumed): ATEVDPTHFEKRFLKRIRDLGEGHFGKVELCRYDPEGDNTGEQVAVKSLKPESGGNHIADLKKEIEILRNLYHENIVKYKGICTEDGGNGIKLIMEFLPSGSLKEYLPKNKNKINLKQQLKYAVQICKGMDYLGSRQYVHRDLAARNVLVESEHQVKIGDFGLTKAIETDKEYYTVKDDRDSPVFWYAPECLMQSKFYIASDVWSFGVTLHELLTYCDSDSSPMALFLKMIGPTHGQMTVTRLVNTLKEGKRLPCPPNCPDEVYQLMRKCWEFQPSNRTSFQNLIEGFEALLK
Experimental: (§1) To our knowledge, it is unknown whether small-molecule JAK inhibitors bind the wild-type and mutant forms of the enzyme with equal affinity. Therefore, the inhibition constant (Ki) for Itacitinib was determined. JAK1 activity was measured by kinase assay in the presence of increasing concentrations of Itacitinib.
(§2) The 10 µL reaction mix contained 0.5 µL 20× Kinase Assay Buffer, 1 µCi γ-^32P-ATP and varying concentrations of ATP, STAT5b peptide, and inhibitor, as described for each experiment. Reactions were started with the addition of 5 µL JAK solution, with concentration as described for each experiment. After incubation at room temperature for 20–60 min, a 3.5 µL reaction mix was spotted onto P81 phosphocellulose paper (Dr. J. Oakhill, SVIMR. Australia) and the paper was placed into 5% (v/v) H3PO4. Paper was washed 4 × 15 min with 100 mL 5% (v/v) H3PO4, followed by 1 × 1 min with acetone. Paper was dried and exposed to a phosphorimager plate overnight. The plate was scanned using a Typhoon FLA 7000 phosphorimager (GE Life Sciences, Chicago, IL, USA) and the incorporated radioactivity of each spot was quantitated using ImageQuant TL software (GE Life Sciences). The background radioactivity, quantified from an area of the paper without reaction mix, was subtracted from that for the experimental spots. […]

JAK1 V658F = JAK1 V658F (Homo sapiens, UniProt P23458, V658F); assay: as above; format: biochemical; conditions: V658F constructs (pseudokinase-kinase, full length); Ki=IC50/(1+S/KM)
Sequence of JAK1 V658F (P23458 25-1154 V658F): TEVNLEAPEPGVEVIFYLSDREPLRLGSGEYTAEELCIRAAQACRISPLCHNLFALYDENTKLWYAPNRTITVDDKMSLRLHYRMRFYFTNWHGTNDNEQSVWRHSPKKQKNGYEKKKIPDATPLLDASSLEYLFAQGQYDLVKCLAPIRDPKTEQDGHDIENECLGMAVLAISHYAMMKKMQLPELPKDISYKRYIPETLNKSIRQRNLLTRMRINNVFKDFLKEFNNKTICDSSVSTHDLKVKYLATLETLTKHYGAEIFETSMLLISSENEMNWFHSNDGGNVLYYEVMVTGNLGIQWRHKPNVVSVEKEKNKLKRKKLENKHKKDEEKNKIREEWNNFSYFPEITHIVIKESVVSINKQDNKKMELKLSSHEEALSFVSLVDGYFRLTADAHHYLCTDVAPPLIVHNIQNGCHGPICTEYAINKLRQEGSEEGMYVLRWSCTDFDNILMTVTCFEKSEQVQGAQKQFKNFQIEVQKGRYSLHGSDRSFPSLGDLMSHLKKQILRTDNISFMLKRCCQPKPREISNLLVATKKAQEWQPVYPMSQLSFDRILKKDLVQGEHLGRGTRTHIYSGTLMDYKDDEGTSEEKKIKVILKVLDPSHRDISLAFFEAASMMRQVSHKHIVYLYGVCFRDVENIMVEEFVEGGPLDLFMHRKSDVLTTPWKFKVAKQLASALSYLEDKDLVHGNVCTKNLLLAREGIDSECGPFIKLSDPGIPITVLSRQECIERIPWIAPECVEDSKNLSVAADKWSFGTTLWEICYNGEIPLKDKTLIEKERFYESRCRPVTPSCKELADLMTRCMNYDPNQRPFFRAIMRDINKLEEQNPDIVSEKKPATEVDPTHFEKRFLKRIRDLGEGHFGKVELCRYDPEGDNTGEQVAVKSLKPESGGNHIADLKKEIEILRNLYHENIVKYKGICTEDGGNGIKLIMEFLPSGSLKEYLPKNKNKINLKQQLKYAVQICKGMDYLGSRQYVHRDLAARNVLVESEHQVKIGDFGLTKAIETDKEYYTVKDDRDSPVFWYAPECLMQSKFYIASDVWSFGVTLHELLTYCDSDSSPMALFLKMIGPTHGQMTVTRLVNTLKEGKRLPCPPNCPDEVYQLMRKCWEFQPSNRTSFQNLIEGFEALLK
Experimental: as §1, §2

JAK1 wild-type and V658F = assay: Steady-state kinetics in the presence and absence of IFNλR peptide; format: biochemical, human; conditions: 2 µM IFNλR peptide
Sequence of JAK1 wild-type and V658F (P23458 25-559 limits assumed, stated change not applied): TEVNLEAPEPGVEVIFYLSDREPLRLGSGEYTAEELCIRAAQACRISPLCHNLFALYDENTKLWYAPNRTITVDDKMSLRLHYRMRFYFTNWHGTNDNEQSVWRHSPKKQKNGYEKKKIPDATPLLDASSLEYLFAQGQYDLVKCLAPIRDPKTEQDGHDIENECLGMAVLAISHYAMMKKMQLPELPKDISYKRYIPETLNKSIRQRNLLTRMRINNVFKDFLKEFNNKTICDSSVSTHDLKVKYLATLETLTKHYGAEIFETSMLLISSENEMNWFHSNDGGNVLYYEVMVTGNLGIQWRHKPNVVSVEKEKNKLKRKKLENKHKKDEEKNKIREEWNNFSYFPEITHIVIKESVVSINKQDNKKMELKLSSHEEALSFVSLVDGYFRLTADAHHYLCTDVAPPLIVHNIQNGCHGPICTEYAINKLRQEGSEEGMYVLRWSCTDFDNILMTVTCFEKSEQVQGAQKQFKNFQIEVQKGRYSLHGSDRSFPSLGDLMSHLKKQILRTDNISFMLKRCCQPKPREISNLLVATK
Experimental: Receptor-binding is an important regulator of the activity of JAK in vivo and may be required in order for the V658F mutation to induce constitutive activity. Although we cannot include full-length receptor constructs in these assays we were able to include a peptide fragment that represents the box1/2 motifs. Therefore, we performed steady-state kinetics using JAK1 wild-type and V658F in the presence and absence of saturating concentrations of the IFNλR peptide.
The 10 µL reaction mix contained 0.5 µL 20× Kinase Assay Buffer, 1 µCi γ-^32P-ATP and varying concentrations of ATP, STAT5b peptide, and inhibitor, as described for each experiment. Reactions were started with the addition of 5 µL JAK solution, with concentration as described for each experiment. After incubation at room temperature for 20–60 min, a 3.5 µL reaction mix was spotted onto P81 phosphocellulose paper (Dr. J. Oakhill, SVIMR. Australia) and the paper was placed into 5% (v/v) H3PO4. […] The plate was scanned using a Typhoon FLA 7000 phosphorimager (GE Life Sciences, Chicago, IL, USA) and the incorporated radioactivity of each spot was quantitated using ImageQuant TL software (GE Life Sciences). The background radioactivity, quantified from an area of the paper without reaction mix, was subtracted from that for the experimental spots.

JAK1 FERM-SH2 domain = target: T2, JAK1 FERM-SH2 domain (Homo sapiens, UniProt P23458); assay: Isothermal titration calorimetry of IFNλR Box1/Box2 peptide binding; conditions: peptide of IFNλR Box1 and Box2 motifs (human residues K250 - T299)
T2 construct: FERM-SH2 domains, 25-559; His tag (TEV-cleavable) (N, cleaved yes); made in house; host or cells: Sf21 insect cells (baculovirus)
T2 sequence (P23458 25-559): as the sequence (P23458 25-559 limits assumed, stated change not applied) above
From the text: We considered the possibility that the pseudokinase and kinase domains of JAK may affect the binding of JAK to the cytokine receptor (either directly or allosterically), as well as the possibility that the V658F mutation might exert its oncogenic effect by influencing the interaction of JAK with receptor. […] We performed isothermal titration calorimetry (ITC) to determine the affinity of a peptide representing the IFNλR Box1 and Box2 motifs (human residues K250 - T299). […] However, there was no significant effect on receptor binding between the wild-type and mutant forms of the enzyme.

IFNλR (Homo sapiens) = IFNλR (Homo sapiens) (UniProt Q8IU57); conditions: cited from earlier work
Sequence of IFNλR (Homo sapiens) (Q8IU57 21-520): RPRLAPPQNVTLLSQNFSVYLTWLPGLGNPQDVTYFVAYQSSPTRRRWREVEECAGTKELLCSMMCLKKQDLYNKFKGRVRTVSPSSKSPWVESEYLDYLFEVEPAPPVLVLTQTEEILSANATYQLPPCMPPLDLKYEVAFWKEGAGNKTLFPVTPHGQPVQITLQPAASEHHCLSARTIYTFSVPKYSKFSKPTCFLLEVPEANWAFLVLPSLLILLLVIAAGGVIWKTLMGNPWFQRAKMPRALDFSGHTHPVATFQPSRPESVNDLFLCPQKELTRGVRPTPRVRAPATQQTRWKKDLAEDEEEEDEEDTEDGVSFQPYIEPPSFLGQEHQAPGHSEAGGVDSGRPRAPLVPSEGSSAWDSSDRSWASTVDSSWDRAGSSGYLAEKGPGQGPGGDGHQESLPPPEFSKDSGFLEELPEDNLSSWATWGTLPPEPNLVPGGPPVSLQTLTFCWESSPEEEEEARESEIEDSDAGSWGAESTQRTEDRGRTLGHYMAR

JAK1 FERM-SH2 domains = target: T3, JAK1 FERM-SH2 domains (human, UniProt P23458 25-559); assay: ITC; IFNλR Box1/Box2 peptide binding to purified JAK1 constructs; three independent experiments; conditions not described in the methods; conditions: both partners purified
T3 construct: human JAK1 FERM-SH2 domains, residues 25-559; source: Sf21 insect cells, baculovirus, purified (HisTrap, TEV cleavage, Superdex 200); not shown: His tag, N-terminal, cleaved
T3 sequence (P23458 25-559): as the sequence (P23458 25-559 limits assumed, stated change not applied) above

[2] = target: T4, full length wild type JAK1 (ΔN25) (human, UniProt P23458 25-1154); assay: as above; conditions: both partners purified
T4 construct: human JAK1, the 'full length' construct, residues 25-1154 (the N-terminal residues deleted for expression); The results say the 25 N-terminal residues were deleted, the methods give 25-1154; also called FL WT; JAK1 FL WT; source: Sf21 insect cells, baculovirus, purified (HisTrap, TEV cleavage, Superdex 200); not shown: His tag, N-terminal, cleaved
T4 sequence (P23458 25-1154, stated change not applied): as the sequence (P23458 25-1154 V658F) above, with F634V counted along it

[3] = target: T5, full length JAK1 V658F (ΔN25) (human, UniProt P23458 25-1154, V658F); assay: as above; conditions: both partners purified
T5 construct: human JAK1, the 'full length' construct, residues 25-1154, with the cancer-linked mutation V658F in the pseudokinase domain; also called FL V658F; JAK1 FL V658F; source: Sf21 insect cells, baculovirus, purified (HisTrap, TEV cleavage, Superdex 200); not shown: His tag, N-terminal, cleaved
T5 sequence (P23458 25-1154 V658F): as the sequence (P23458 25-1154 V658F) above

Sequence of JAK1 constructs (P23458 862-1154 limits assumed): as the sequence (P23458 862-1154 limits assumed) above

Molecule: Nc1ncnc2c1ncn2[C@@H]1O[C@H](COP(=O)(O)OP(=O)(O)OP(=O)(O)O)[C@@H](O)[C@H]1O [ATP]
Tm change (JAK1 constructs; 1 mM ATP and 2 mM MgCl2, compared to EDTA): increased Tm | Km (JAK1; full-length enzyme): 25 µM | Km (JAK1; kinase domain alone): 175 µM

Molecule: N#CCC1(n2cc(-c3ncnc4[nH]ccc34)cn2)CN(C2CCN(C(=O)c3ccnc(C(F)(F)F)c3F)CC2)C1 [itacitinib]
Tm change (JAK1 constructs; 6 µM itacitinib, compared to ATP/Mg2+): further Tm increase | Ki [1]: 0.5 to 2 nM | Ki (JAK1 V658F): 0.5 to 2 nM

effect on ATP KM or turnover rate (JAK1 wild-type and V658F): no significant differences
Molecule: IFNλR peptide: peptide representing the IFNλR Box1 and Box2 motifs (human residues K250 - T299) (KTLMGNPWFQRAKMPRALDFSGHTHPVATFQPSRPESVNDLFLCPQKELT)
affinity (ITC) (JAK1 FERM-SH2 domain): near-identical affinity to that previously reported

Molecule: JAK1 FERM-SH2 (from UniProt P23458)
Kd (IFNλR (Homo sapiens)): 71 nM

binding result (JAK1 FERM-SH2 domains): binds | binding result [2]: binds | binding result [3]: binds
B1: peptide representing the IFNλR Box1 and Box2 motifs (human residues K250 - T299) (peptide, UniProt Q8IU57 250-299, looked up)
peptide: KTLMGNPWFQRAKMPRALDFSGHTHPVATFQPSRPESVNDLFLCPQKELT
notes: human interferon-lambda receptor (IFNλR), intracellular Box1 and Box2 motifs, residues K250-T299; also called IFNλR peptide; interferon lambda box1-box2 peptide
